According to PubChem BioAssay AID1919013 (Molecular Pharmacology Branch, DTP, NCI, 2023):
pIC50: −log10 of the molar value. Where “and” joins values, the source holds several entries; their conditions need not be identical. Identical values can stand only once.

Tested on: LG0703-F498-PDC complex spheroid growth
Test: Anticancer human tumor LG0703-F498-PDC patient-derived lung adenocarcinoma cell line growth inhibition [AhR]
Settings: for viability, T/C: stronger effect = lower value
Procedure, shortened: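 Spheroids combined tumor cells with HUVEC endothelial cells and human MSCs as stroma. AhR antagonists were paired with standard or investigational drugs, each dosed in half-log steps down from near clinical Cmax, or from 10 microM where Cmax was unknown.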

[1] = curve of first compound, second compound 0.1 µM
[2] = curve of first compound, second compound 0.316 µM
[3] = curve of first compound, second compound 1 µM
[4] = curve of first compound, second compound 3.16 µM
[5] = curve of first compound, second compound 10 µM
[6] = second compound 0.1 µM, first compound 0.0316 µM
[7] = second compound 0.1 µM, first compound 0.1 µM
[8] = second compound 0.1 µM, first compound 0.316 µM
[9] = second compound 0.1 µM, first compound 1 µM
[10] = second compound 0.1 µM, first compound 3.16 µM
[11] = second compound 0.1 µM, first compound 10 µM
[12] = second compound 0.316 µM, first compound 0.0316 µM
[13] = second compound 0.316 µM, first compound 0.1 µM
[14] = second compound 0.316 µM, first compound 0.316 µM
[15] = second compound 0.316 µM, first compound 1 µM
[16] = second compound 0.316 µM, first compound 3.16 µM
[17] = second compound 0.316 µM, first compound 10 µM
[18] = second compound 1 µM, first compound 0.0316 µM
[19] = second compound 1 µM, first compound 0.1 µM
[20] = second compound 1 µM, first compound 0.316 µM
[21] = second compound 1 µM, first compound 1 µM
[22] = second compound 1 µM, first compound 3.16 µM
[23] = second compound 1 µM, first compound 10 µM
[24] = second compound 3.16 µM, first compound 0.0316 µM
[25] = second compound 3.16 µM, first compound 0.1 µM
[26] = second compound 3.16 µM, first compound 0.316 µM
[27] = second compound 3.16 µM, first compound 1 µM
[28] = second compound 3.16 µM, first compound 3.16 µM
[29] = second compound 3.16 µM, first compound 10 µM
[30] = second compound 10 µM, first compound 0.0316 µM
[31] = second compound 10 µM, first compound 0.1 µM
[32] = second compound 10 µM, first compound 0.316 µM
[33] = second compound 10 µM, first compound 1 µM
[34] = second compound 10 µM, first compound 3.16 µM
[35] = second compound 10 µM, first compound 10 µM
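Note: luminescence taken as a proxy for viable cell amount.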
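Throughout, for viability, T/C: percent of DMSO vehicle control where 100% means growth equal to vehicle.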

| Compound | pIC50 [1] | pIC50 [2] | pIC50 [3] | pIC50 [4] | pIC50 [5] | viability, T/C [6] [%] | viability, T/C [7] [%] | viability, T/C [8] [%] | viability, T/C [9] [%] | viability, T/C [10] [%] | viability, T/C [11] [%] | viability, T/C [12] [%] | viability, T/C [13] [%] | viability, T/C [14] [%] | viability, T/C [15] [%] | viability, T/C [16] [%] | viability, T/C [17] [%] | viability, T/C [18] [%] | viability, T/C [19] [%] | viability, T/C [20] [%] | other results |
| --- | --- | --- | --- | --- | --- | --- | --- | --- | --- | --- | --- | --- | --- | --- | --- | --- | --- | --- | --- | --- | --- |
| COc1ccc([C@@H](O)c2cc(-c3ncnc4cc(N5CCOCC5)ccc34)c(F)cc2Cl)nn1 + CC(CO)NC(=O)c1cc(-c2ccc(Cl)cc2)nn(-c2cnn(C)c2)c1=O | 5.44 | 5.32 | 5.28 | 5.50 | 5.54 | 88.9 | 89.9 | 93.5 | 76 | 53.5 | 31.7 | 94.2 | 95.8 | 81 | 74.5 | 64.5 | 30.5 | 97.4 | 95.1 | 88.1 | viability, T/C [21]: 83.8%; viability, T/C [22]: 61.6%; viability, T/C [23]: 34.4%; viability, T/C [24]: 93.1%; viability, T/C [25]: 86.4%; viability, T/C [26]: 88.1%; viability, T/C [27]: 68.3%; viability, T/C [28]: 51.2%; viability, T/C [29]: 32.1%; viability, T/C [30]: 78.5%; viability, T/C [31]: 88.3%; viability, T/C [32]: 77.1%; viability, T/C [33]: 69.5%; viability, T/C [34]: 48.5%; viability, T/C [35]: 33.4% |
| CC1(C)CCC(CN2CCN(c3ccc(C(=O)NS(=O)(=O)c4ccc(NCC5CCOCC5)c([N+](=O)[O-])c4)c(Oc4cnc5[nH]ccc5c4)c3)CC2)=C(c2ccc(Cl)cc2)C1 + CC(CO)NC(=O)c1cc(-c2ccc(Cl)cc2)nn(-c2cnn(C)c2)c1=O | 5.23 | 5.25 | 5.24 | 5.26 | 5.29 | 92.1 | 99.7 | 89.5 | 85.6 | 87.4 | 18.4 | 106 | 108 | 86.8 | 82.4 | 86 | 20.5 | 85.6 | 97.4 | 90.3 | viability, T/C [21]: 92.7%; viability, T/C [22]: 85.4%; viability, T/C [23]: 18.2%; viability, T/C [24]: 82.2%; viability, T/C [25]: 80.1%; viability, T/C [26]: 90.1%; viability, T/C [27]: 90.2%; viability, T/C [28]: 78.7%; viability, T/C [29]: 18.3%; viability, T/C [30]: 75.8%; viability, T/C [31]: 80.1%; viability, T/C [32]: 77.2%; viability, T/C [33]: 78.2%; viability, T/C [34]: 73.2%; viability, T/C [35]: 17.9% |
| CCc1c2c(nc3ccc(O)cc13)-c1cc3c(c(=O)n1C2)COC(=O)[C@]3(O)CC |  |  |  |  |  |  |  |  |  |  |  |  |  |  |  |  |  |  |  |  | viability, T/C (compound 0.000949 µM): 95.1% and 92.3% and 101%; viability, T/C (compound 0.003 µM): 87% and 101% and 106%; viability, T/C (compound 0.00949 µM): 95.9% and 86.3% and 92.1%; viability, T/C (compound 0.03 µM): 62.3% and 66% and 69.1%; viability, T/C (compound 0.0949 µM): 47.3% and 57% and 58.6%; viability, T/C (compound 0.3 µM): 30.2% and 32.5% and 34.4%; pIC50 (curve of compound): 7.17 and 6.95 and 6.91 |
